Results on five compounds are retold here after PMC11944514, “Dengue Virus Inhibitors as Potential Broad-Spectrum Flavivirus Inhibitors” (Pharmaceuticals, 2025).

The test system of data set [1] is ZIKV-Nanoluc. Put plainly: microbe, parasite or virus in culture. The format is cell-based. The conditions noted are these: for EC50: Zika virus, Vero C1008, read-out: ZIKV EC50, μM.
The subject of data set [2] is DENV2. Details: method as in PMID 25878766. Conditions: BHK-21 cells; read-out: EC50, inhibition of DENV2 infection; cited from earlier work.
Data set [3] has as its system KUNV-Nanoluc replicon. The format is cell-based.
Data set [4] relates to Vero E6 cells. Put plainly: WST-1 cell viability assay, Vero E6. Conditions: Vero E6, 48 h of exposure. The format is cell-based, African green monkey. The method, then:
The cytotoxic effect of all studied compounds was assessed using the WST-1 assay after 48 h of exposure. […] This observation can be explained by the fact that the compound C8 is resazurin, phenoxazine dye, also known as Alamar Blue, which is subject to irreversible metabolic reduction to the resorufin by live mammalian cells. Thus, the cytotoxic effect of this compound cannot be assessed by the WST-1 assay correctly. Therefore, the C8 cytotoxicity was further assessed using the resazurin cell viability assay. This assay allowed us to avoid the interference between the tested compound and dye and obtain more reliable results for colored compounds.
(§1) Vero E6 or U2OS cells were seeded on the 96-well plate at a density of 1 × 10^4 cells/well and were allowed to adhere overnight. Next day, the cells were treated with the studied compounds at concentrations ranging from 1 to 100 μM with a ten-fold dilution step. As a solvent control, 0.01% DMSO (Sigma, St. Louis, MO, USA) was used. After 48 h of exposure, 10 μL of WST-1 (10 mg/mL) cell proliferation reagent (Roche, Cat. No. 11644807001) was added to each well, and plates were incubated at 37 °C, 5% CO2 for 2 h. The optical density was then measured at 450 nm using an Epoch Microplate Spectrophotometer (BioTek Instruments, Inc., Winooski, VT, USA). Four independent experiments were carried out in triplicates.
For orientation: Tetrazolium assays rely on reduction of a dye to a coloured formazan, in cell work by metabolically active cells.

Data set [5] concerns TBEV-Nanoluc replicon. The data set is classed as cell-based.
Data set [6] has as its system DENV2-Nanoluc replicon. The data set is classed as cell-based.
The nature of data set [7]: xCELLigence real-time cytotoxicity assay (RTCA), CC50. The format is cell-based. The conditions noted are these: African green monkey, Vero E6 cells, 24 h of exposure. As for the experimental part:
As compounds C1, C2, and C3 were relatively toxic (Figure 2A), we determined the selectivity index (SI) of the identified potential broad-spectrum flavivirus inhibitors. As the WST-1 assay tends to underestimate the toxic effect and is unable to detect cytostatic effects, the CC50 of the perspective compounds was measured using a more sensitive xCELLigence real-time cytotoxicity assay (RTCA). […] The full xCELLigence RTCA data are provided in the Supporting Information section (Figures S2 and S3). Thereafter, for each compound, the SI was calculated as a ratio of the CC50 of a compound against its EC50 [36].
Vero E6 cells were seeded on a 16-well E-plate (ACEA Biosciences, Inc., San Diego, CA, USA ) at a density of 5 × 10^3 cells/well and allowed to adhere overnight. On the next day, the studied compounds were added at the final concentrations ranging from 0.078 μM to 5 μM with a two-fold dilution step for compounds C1, C2, and C3, and at the final concentrations ranging from 1.56 μM to 50 μM with a two-fold dilution step for compounds C5 and C6; 0.01% DMSO was used as a solvent control. The cells were incubated for 5 days, and the signals between the electrodes (impedance) were recorded using an RTCA xCELLigence machine (Agilent Technologies, Inc., Santa Clara, CA, USA). […] The CC50 values were calculated using GraphPad Prism 10.0 for Windows, GraphPad Software, v. 10.4.1, Boston, MA, USA, www.graphpad.com (accessed on 16 February 2025).

The subject of data set [8] is TBEV-Nanoluc. Put plainly: microbe, parasite or virus in culture. The data set is classed as cell-based.
Data set [9] deals with DENV2-Nanoluc. Description: microbe, parasite or virus in culture. The data set is classed as cell-based. Conditions: for EC50: Dengue virus.
For data set [10], the system named is ZIKV-Nanoluc replicon. The format is cell-based.
The subject of data set [11] is KUNV-Nanoluc. Put plainly: organism not typed. The format is cell-based. The conditions noted are these: for EC50: Vero C1008, read-out: KUNV EC50, μM.
The test system of data set [12] is TBEV. The conditions noted are these: cited from earlier work.
The test system of data set [13] is ZIKV. Further details: method as in PMID 29642580. The conditions noted are these: reference inhibitor compound; cited from earlier work.
The test system of data set [14] is KUNV. The conditions noted are these: cited from earlier work.
For data set [15], the system named is Vero E6. The conditions noted are these: cited from earlier work.
Data set [16] has as its system DENV-2-NGC. Details: method as in PMID 17360676. The conditions noted are these: Vero E6 cells; read-out: EC50, inhibition of DENV-2-NGC activity; cited from earlier work.
The test system of data set [17] is U2OS cells. Put plainly: WST-1 cell viability assay, U2OS. The conditions noted are these: 48 h of exposure. The format is cell-based, human. The method, then: as §1
Data set [18] relates to U2OS cells. Further details: method as in PMID 31609477. The conditions noted are these: previously reported; read-out: 50% cytotoxic concentration (CC50) against U2OS cells; cited from earlier work.
For data set [19], the system named is Vero E6. Further details: method as in PMID 20837762. Conditions: reference inhibitor compound; cited from earlier work.
For data set [20], the system named is DENV2. Further details: method as in PMID 20837762. The conditions noted are these: reference inhibitor compound; cited from earlier work.
In data set [21] the test system is New Guinea C strain of DENV2. Conditions: human Huh7 cells infected for 48 h, Renilla luciferase assay; read-out: EC50 against the New Guinea C strain of DENV2; cited from earlier work.
Where [22] appears, read: DENV2, Vero C1008, read-out: DENV2 EC50, μM.

Read-outs that look alike come from different tables or passages of the source.

Take `CN1C(=O)C2(CC(=O)Nc3c2cnn3Cc2ccc(Cl)cc2)c2cc(Cl)ccc21` (centres unmarked) [Compound C6, 5-chloro-1′-[(4-chlorophenyl)methyl]-1-methyl-1,1′,2,5′,6′,7′-hexahydrospiro[indole-3,4′-pyrazolo[3,4-b]pyridine]-2,6′-dione]: the “antiviral effect against ZIKV-Nanoluc (initial screening)” value in data set [1] is “partially inhibited the virus activity at this concentration”. Also, the EC50 (in general, the concentration needed to bring the measured effect to its halfway point) is 23.9 µM in data set [1], 0.006 µM in data set [2], 14 µM in data set [8] (read-out: TBEV EC50) and 20.6 µM in data set [11]. The “antiviral effect against KUNV-Nanoluc replicon” value in data set [3] was “most active against all the studied viral replicons”. Further, in data set [4], the “cytotoxic effect (WST-1 assay)” value was “no cytotoxic effect at the maximal tested concentration”. Moreover, the “antiviral effect against TBEV-Nanoluc replicon” value in data set [5] is reported as “most active against all the studied viral replicons”. For the same compound, in [6], the “antiviral effect against DENV2-Nanoluc replicon” value was “most active against all the studied viral replicons”. Further, the CC50 at 24 h in data set [7] is greater than 50 µM. The “antiviral effect against TBEV-Nanoluc (initial screening)” value in [8] is “clear dose-dependent antiviral effect”. In addition, in data set [9], the “antiviral effect against DENV2-Nanoluc (initial screening)” value was “apparent dose-dependent antiviral effects”. Besides, the “antiviral effect against ZIKV-Nanoluc replicon” value in data set [10] was “most active against all the studied viral replicons”. The “antiviral effect against KUNV-Nanoluc (initial screening)” value in data set [11] is on record as “decreased the KUNV-Nanoluc activity only at the maximum tested concentrations”.
As for `CCOC(=O)c1c(CSc2ccccc2)n(C)c2cc(Br)c(O)c(CN(C)C)c12` [Arbidol], the values for the EC50 in data set [12], in data set [13] and in [14] were 18.7 µM, 12.1 µM and 18.8 µM, respectively. Further, the CC50 in [15] is 89.7 µM.
As for `COc1c(C)c2c(c(O)c1CC=C(C)CCC(=O)O)C(=O)OC2` [Compound C3, 6-(4-hydroxy-6-methoxy-7-methyl-3-oxo-1,3-dihydro-2-benzofuran-5-yl)-4-methylhex-4-enoic acid], the “antiviral effect against ZIKV-Nanoluc (initial screening)” value in data set [1] was “only demonstrated a statistically significant antiviral effect at the maximum tested concentration”. For the same compound, the EC50 in data set [1] is 0.53 µM; in data set [16], 5.7 µM; in [8] (Tick-borne encephalitis virus, Vero C1008, read-out: TBEV EC50, μM) it was 0.61 µM; in data set [9] (setting [22]) it was 0.12 µM; in [11] it was 0.21 µM. For the same compound, the “antiviral effect against KUNV-Nanoluc replicon” value in data set [3] is listed as “no effect at the maximum non-toxic concentration”. Moreover, the “antiviral effect against TBEV-Nanoluc replicon” value in data set [5] is on record as “no effect at the maximum non-toxic concentration”. Besides, the “antiviral effect against DENV2-Nanoluc replicon” value in data set [6] is reported as “no effect at the maximum non-toxic concentration”. Moreover, the CC50 at 24 h in data set [7] is greater than 5 µM. In addition, in data set [8], the “antiviral effect against TBEV-Nanoluc (initial screening)” value is given as “clear dose-dependent antiviral effect”. In data set [17], the “cytotoxic effect (WST-1 assay)” value was “extremely toxic for the U2OS cell line even at the lowest micromolar concentration”. The “antiviral effect against DENV2-Nanoluc (initial screening)” value in data set [9] is on record as “apparent dose-dependent antiviral effects”. In addition, in data set [18], the CC50 was 1.66 µM. Besides, the “antiviral effect against ZIKV-Nanoluc replicon” value in data set [10] is reported as “no effect at the maximum non-toxic concentration”. For the same compound, in data set [11], the “antiviral effect against KUNV-Nanoluc (initial screening)” value was “apparent dose-dependent antiviral effect”.
Take `COc1cccc2c1C(=O)c1c(O)c3c(c(O)c1C2=O)C[C@@](O)(C(=O)CO)C[C@@H]3O[C@H]1C[C@H](N)[C@H](O)[C@H](C)O1` [Doxorubicin]: in data set [19], the CC50 is 24 µM. The concentration for a half-maximal effect (EC50) in data set [20] is 1.2 µM.
As for `CC(C)(C)Oc1cccc2nc(N)nc(N)c12` [Compound C2, 5-(tert-butoxy)quinazoline-2,4-diamine], in [1], the “antiviral effect against ZIKV-Nanoluc (initial screening)” value is recorded as “completely inhibited the ZIKV-Nanoluc replication at the maximum tested concentration”. For the same compound, the “concentration at which a statistically significant antiviral effect appeared (ZIKV-Nanoluc)” value in data set [1] was 0.2 µM. Moreover, the EC50 in data set [1] is 0.48 µM; in data set [21], 0.0028 µM; in data set [9] (setting [22]), roughly 0.13 µM; in [9] (DENV2, Vero C1008, read-out: EC50 against DENV2), roughly 0.13 µM; in data set [11], 0.26 µM. In data set [7], this compound registered a CC50 at 24 h of 0.31 µM. Besides, in data set [8], the “antiviral effect against TBEV-Nanoluc (initial screening)” value is on record as “clear dose-dependent antiviral effect”. The “antiviral effect against DENV2-Nanoluc (initial screening)” value in data set [9] is on record as “apparent dose-dependent antiviral effects”. For the same compound, the “antiviral effect against KUNV-Nanoluc (initial screening)” value in data set [11] is on record as “decreased the KUNV-Nanoluc activity only at the maximum tested concentrations”.
